Reference: ChEMBL document CHEMBL5108027, “An unanticipated discovery of novel naphthalimidopropanediols as potential broad-spectrum antibacterial members” (Eur J Med Chem, 2022)
Converted amounts (≈) assume the structure as drawn. The source made the active and inactive calls. The rule behind the calls is not given here.

How the values were obtained:
Staphylococcus aureus [1] = assay: Antibacterial activity against Staphylococcus aureus measured by Muller-Hinton broth based microdilution assay; assay type: functional
Staphylococcus aureus [2] = assay: Disruption of membrane integrity in Staphylococcus aureus assessed as increase in nucleic acid leakage by measuring increase in absorbance 1 to 8 times MIC measured for 6 hrs by spectrophotometry; assay type: functional, organism-based
Klebsiella pneumoniae = assay: Antibacterial activity against Klebsiella pneumoniae measured by Muller-Hinton broth based microdilution assay; assay type: functional
Staphylococcus aureus [3] = assay: Bactericidal activity against Staphylococcus aureus assessed as reduction in number of colonies at 0.5 to 2 times MIC measured within 6 hrs by time-kill assay; assay type: functional, organism-based
Staphylococcus aureus [4] = assay: Antibacterial activity against methicillin-resistant Staphylococcus aureus N315 measured by Muller-Hinton broth based microdilution assay; assay type: functional
Pseudomonas aeruginosa [5] = assay: Antibacterial activity against Pseudomonas aeruginosa ATCC 27853 measured by Muller-Hinton broth based microdilution assay; assay type: functional
Staphylococcus aureus [6] = assay: Antibacterial activity against Staphylococcus aureus assessed as reduction in metabolic activity at 1 to 8 times MIC measured after 6 hrs by Alamar blue assay; assay type: functional, organism-based
[7] = Hemolytic activity in human RBC measured after 1 hr; assay type: toxicity, cell-based, Erythrocyte; conditions: human red blood cells (erythrocytes)
Escherichia coli [8] = assay: Antibacterial activity against Escherichia coli ATCC 25922 measured by Muller-Hinton broth based microdilution assay; assay type: functional
Staphylococcus aureus [9] = assay: Induction of inner membrane permeabilization in Staphylococcus aureus by measuring increase in fluorescence intensity at 1 to 8 times MIC by calcein-AM/PI staining based fluorescence analysis; assay type: functional, organism-based
Enterococcus faecalis = assay: Antibacterial activity against Enterococcus faecalis measured by Muller-Hinton broth based microdilution assay; assay type: functional
Escherichia coli [10] = assay: Antibacterial activity against Escherichia coli measured by Muller-Hinton broth based microdilution assay; assay type: functional
Staphylococcus aureus [11] = assay: Antibacterial activity against Staphylococcus aureus assessed as reduction in LDH activity at 1 to 8 times MIC measured after 6 hrs by microplate reader method; assay type: functional; set-up: scale not given: the % may be the effect or the level left
Staphylococcus aureus [12] = assay: Antibacterial activity against Staphylococcus aureus ATCC 29213 measured by Muller-Hinton broth based microdilution assay; assay type: functional
Staphylococcus aureus [13] = assay: Disruption of membrane integrity in Staphylococcus aureus assessed as increase in protein leakage by measuring increase in absorbance 1 to 8 times MIC measured for 6 hrs by Bradford assay; assay type: functional, organism-based
Staphylococcus aureus [14] = assay: Induction of oxidative stress in Staphylococcus aureus assessed as decrease in GSH activity at 1 to 8 times MIC measured after 6 hrs by Ellman's assay; assay type: functional, organism-based
L929 = assay: Cytotoxicity against mouse L929 cells assessed as effect on cell growth at 0.25 to 0.5 ug/ml incubated for 24 hrs by MTT assay; assay type: toxicity, cell-based; conditions: l929, 24 h, dose 0.25-0.5 µg/ml
Staphylococcus aureus [15] = assay: Antibiofilm activity in Staphylococcus aureus at 1 to 8 times MIC measured by Alamar blue assay; assay type: functional, organism-based
Pseudomonas aeruginosa [16] = assay: Antibacterial activity against Pseudomonas aeruginosa measured by Muller-Hinton broth based microdilution assay; assay type: functional
Staphylococcus aureus [17] = assay: Inhibition of bacterial growth of Staphylococcus aureus at 1 to 2 times MIC; assay type: functional
Staphylococcus aureus [18] = assay: Induction of oxidative stress in Staphylococcus aureus assessed as increase in intracellular ROS level at 1 to 8 times MIC measured after 6 hrs by DCFH-DA staining method; assay type: functional, organism-based
[19] = Hemolytic activity in human RBC assessed as hemolytic rate at 2 to 512 ug/ml and measured after 1 hr; assay type: toxicity, cell-based, Erythrocyte; conditions: human red blood cells (erythrocytes), at 2 to 512 µg/mL, dose 2-512 µg/ml, read-out: Activity
[20] = Selectivity ratio of HC50 for hemolytic activity in human RBC to MIC for antibacterial activity against Staphylococcus aureus; assay type: toxicity; conditions: human red blood cells (erythrocytes)
Staphylococcus aureus [21] = assay: Antibacterial activity against Staphylococcus aureus ATCC 25923 measured by Muller-Hinton broth based microdilution assay; assay type: functional
Staphylococcus aureus [22] = assay: Disruption of membrane integrity in Staphylococcus aureus at 8 times MIC by calcein-AM/PI staining based fluorescence analysis; assay type: functional, organism-based
Staphylococcus aureus [23] = assay: Inhibition of biofilm formation in Staphylococcus aureus at 1 to 8 times MIC measured after 24 hrs by crystal violet staining method; assay type: functional, organism-based
Staphylococcus aureus [24] = assay: Induction of membrane depolarization in Staphylococcus aureus at 0.5 to 2 times MIC measured upto 1 hr by DiSC35 dye-based fluorescence assay; assay type: functional, organism-based
Acinetobacter baumannii = assay: Antibacterial activity against Acinetobacter baumannii measured by Muller-Hinton broth based microdilution assay; assay type: functional
Staphylococcus aureus [25] = assay: Antibacterial activity against Staphylococcus aureus measured after 16 passages by resistance development assay; assay type: functional, organism-based

SMILES	MIC (Staphylococcus aureus [1]) [µg/mL]	MIC (Klebsiella pneumoniae) [µg/mL]	MIC (Staphylococcus aureus [4]) [µg/mL]	MIC (Pseudomonas aeruginosa [5]) [µg/mL]	MIC (Escherichia coli [8]) [µg/mL]	MIC (Enterococcus faecalis) [µg/mL]	MIC (Escherichia coli [10]) [µg/mL]	MIC (Staphylococcus aureus [12]) [µg/mL]	MIC (Pseudomonas aeruginosa [16]) [µg/mL]	MIC (Staphylococcus aureus [21]) [µg/mL]	MIC (Acinetobacter baumannii) [µg/mL]	further results
O=C1c2cccc3c(N/N=C/c4cccc(Cl)c4)ccc(c23)C(=O)N1C(CO)CO	0.25 (≈ 0.59 µM)	8 (≈ 18.9 µM)	64 (≈ 151 µM)	2 (≈ 4.72 µM)	32 (≈ 75.5 µM)	64 (≈ 151 µM)	64 (≈ 151 µM)	8 (≈ 18.9 µM)	64 (≈ 151 µM)	32 (≈ 75.5 µM)	64 (≈ 151 µM)	Activity (Staphylococcus aureus [2]): Active; Activity (Staphylococcus aureus [3]): Active; Activity (Staphylococcus aureus [6]): Active; HC50 at 1 h [7]: > 1000 µg/mL; Activity (Staphylococcus aureus [9]): Active; Activity (Staphylococcus aureus [11]): 70%; Activity (Staphylococcus aureus [13]): Active; Activity (Staphylococcus aureus [14]): Active; Activity (L929): Non-Toxic; Activity (Staphylococcus aureus [15]): Active; inhibition (Staphylococcus aureus [17]): Active; Activity (Staphylococcus aureus [18]): Active; hemolysis at 1 h [19]: < 5%; selectivity ratio [20]: > 4000; Activity (Staphylococcus aureus [22]): Active; inhibition (Staphylococcus aureus [23]): Active; Activity (Staphylococcus aureus [24]): Active; Activity (Staphylococcus aureus [25]): Active
CCOC(=O)Cn1cc(/C=N/Nc2ccc3c4c(cccc24)C(=O)N(C(CO)CO)C3=O)c2ccccc21	0.25 (≈ 0.486 µM)	4 (≈ 7.77 µM)	16 (≈ 31.1 µM)	8 (≈ 15.5 µM)	32 (≈ 62.2 µM)	64 (≈ 124 µM)	64 (≈ 124 µM)	8 (≈ 15.5 µM)	64 (≈ 124 µM)	32 (≈ 62.2 µM)	32 (≈ 62.2 µM)	Activity (Staphylococcus aureus [2]): Active; Activity (Staphylococcus aureus [3]): Active; Activity (Staphylococcus aureus [6]): Active; HC50 at 1 h [7]: > 1000 µg/mL; Activity (Staphylococcus aureus [9]): Active; Activity (Staphylococcus aureus [11]): 70%; Activity (Staphylococcus aureus [13]): Active; Activity (Staphylococcus aureus [14]): Active; Activity (L929): Non-Toxic; Activity (Staphylococcus aureus [15]): Active; inhibition (Staphylococcus aureus [17]): Active; Activity (Staphylococcus aureus [18]): Active; hemolysis at 1 h [19]: < 5%; selectivity ratio [20]: > 4000; Activity (Staphylococcus aureus [22]): Active; inhibition (Staphylococcus aureus [23]): Active; Activity (Staphylococcus aureus [24]): Active; Activity (Staphylococcus aureus [25]): Active
O=C1c2cccc3c(N/N=C/c4cc(=O)oc5cc(O)ccc45)ccc(c23)C(=O)N1C(CO)CO	4 (≈ 8.45 µM)	4 (≈ 8.45 µM)	32 (≈ 67.6 µM)	4 (≈ 8.45 µM)	32 (≈ 67.6 µM)	128 (≈ 270 µM)	64 (≈ 135 µM)	8 (≈ 16.9 µM)	64 (≈ 135 µM)	8 (≈ 16.9 µM)	64 (≈ 135 µM)	–
O=C(Cn1cc(/C=N/Nc2ccc3c4c(cccc24)C(=O)N(C(CO)CO)C3=O)c2ccccc21)N1CCOCC1	128 (≈ 230 µM)	256 (≈ 461 µM)	256 (≈ 461 µM)	128 (≈ 230 µM)	256 (≈ 461 µM)	128 (≈ 230 µM)	256 (≈ 461 µM)	128 (≈ 230 µM)	256 (≈ 461 µM)	64 (≈ 115 µM)	128 (≈ 230 µM)	–
O=C1c2cccc3c(N/N=C/c4ccc([N+](=O)[O-])cc4)ccc(c23)C(=O)N1C(CO)CO	2 (≈ 4.6 µM)	32 (≈ 73.7 µM)	64 (≈ 147 µM)	16 (≈ 36.8 µM)	32 (≈ 73.7 µM)	1 (≈ 2.3 µM)	32 (≈ 73.7 µM)	64 (≈ 147 µM)	16 (≈ 36.8 µM)	2 (≈ 4.6 µM)	64 (≈ 147 µM)	–
C#CCn1cc(/C=N/Nc2ccc3c4c(cccc24)C(=O)N(C(CO)CO)C3=O)c2ccccc21	0.5 (≈ 1.07 µM)	4 (≈ 8.57 µM)	8 (≈ 17.1 µM)	4 (≈ 8.57 µM)	16 (≈ 34.3 µM)	16 (≈ 34.3 µM)	64 (≈ 137 µM)	1 (≈ 2.14 µM)	32 (≈ 68.6 µM)	8 (≈ 17.1 µM)	16 (≈ 34.3 µM)	–
O=C1c2cccc3c(N/N=C/c4cccc(F)c4)ccc(c23)C(=O)N1C(CO)CO	16 (≈ 39.3 µM)	2 (≈ 4.91 µM)	32 (≈ 78.5 µM)	32 (≈ 78.5 µM)	64 (≈ 157 µM)	32 (≈ 78.5 µM)	64 (≈ 157 µM)	64 (≈ 157 µM)	32 (≈ 78.5 µM)	64 (≈ 157 µM)	64 (≈ 157 µM)	–
Cc1ccc(/C=N/Nc2ccc3c4c(cccc24)C(=O)N(C(CO)CO)C3=O)cc1	0.5 (≈ 1.24 µM)	8 (≈ 19.8 µM)	16 (≈ 39.7 µM)	1 (≈ 2.48 µM)	32 (≈ 79.3 µM)	64 (≈ 159 µM)	64 (≈ 159 µM)	4 (≈ 9.91 µM)	64 (≈ 159 µM)	32 (≈ 79.3 µM)	64 (≈ 159 µM)	–
O=C1c2cccc3c(N/N=C/c4ccc(Cl)cc4)ccc(c23)C(=O)N1C(CO)CO	32 (≈ 75.5 µM)	16 (≈ 37.7 µM)	16 (≈ 37.7 µM)	32 (≈ 75.5 µM)	64 (≈ 151 µM)	32 (≈ 75.5 µM)	64 (≈ 151 µM)	128 (≈ 302 µM)	32 (≈ 75.5 µM)	64 (≈ 151 µM)	128 (≈ 302 µM)	–
